The values below come from PubChem BioAssay (NCI).

Some test systems named below: BT-549 breast; MDA-N; LXFL 529 NSCLC; HOP-18 NSCLC; M19-MEL melanoma; XF 498 CNS; KM20L2 colon.
Common to all, as to assay: NCI anticancer screen, dose series, 48 h

SMILES strings stand for the structures. “And” between values parts separate entries of the source, which are not always exact repeats. Identical values can stand only once.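 Following 48 hours of exposure in 96-well plates, responses at five concentrations were used to interpolate endpoints linearly. GI50 = concentration required for 50% inhibition of growth. TGI is the concentration that stops growth completely.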

For the compound `COc1ccc(C2=NOC3=c4ccccc4=CSC3=C2c2ccccc2)cc1`, in the assay with BT-549 breast, the GI50 was 24 µM and the TGI is 77 µM.
On to `CCCCCCCC(=O)OC[n+]1cccc(-c2c(COC(=O)NC(C)C)c(COC(=O)NC(C)C)c3n2CCC3)c1`, for which the TGI in the assay with BT-549 breast and in the assay on MDA-N was over 100 µM each time.
In the case of `COc1ccc2cc1Oc1ccc(cc1)CC1c3c(cc(OC)c4c3Oc3cc5c(cc3O4)CCNC5C2)CCN1C` (configuration not stated), the TGI was 8.01 µM in the assay with BT-549 breast; 3.43 µM and 3.49 µM in the assay with MDA-N. For the same compound, the GI50 with MDA-N is 1950 nM.
On to `CN(C)CCC(/C=C/c1ccccc1)=N\Nc1c(F)c(F)c(F)c(F)c1F`, for which the TGI in the assay with LXFL 529 NSCLC, with HOP-18 NSCLC and with M19-MEL melanoma was over 100 µM throughout.
Regarding `COc1ccc(-c2nn(-c3cccc(Cl)c3)cc2-c2c(C#N)c(=O)n3[nH]c(-c4ccc(C)o4)nc3c2C#N)cc1`, in the assay with BT-549 breast, the GI50 was 4.19 µM and the TGI was found to be 43.5 µM.
For `CC(C)(C)OC(=O)CC(S(=O)(=O)c1ccccc1)S(=O)(=O)c1ccccc1`, in the assay on BT-549 breast, the GI50 is 12.4 µM and the TGI was found to be 25.2 µM.
For `O=[N+]([O-])/C(=C/C=C/c1ccccc1)c1ccccc1`, in that order: 1.91 µM and 4.1 µM.
For the compound `COc1ccc(S(=O)(=O)NNS(C)(=O)=O)cc1OC`, the TGI in the assay on XF 498 CNS, in the assay on LXFL 529 NSCLC, in the assay with KM20L2 colon and in the assay on M19-MEL melanoma was over 100 µM each time.
Consider `CC(C)OC(=O)c1cc(NC(=S)OC(C)C)ccc1Cl`, for which the TGI in the assay with BT-549 breast is 33.5 µM; in the assay on MDA-N, 50 µM.
In the case of `COc1ccc2c(c1)CCC1C2CCC2(C)C(NC(=O)CCCCC3CCSS3)CCC12` (configuration not stated), in the assay with BT-549 breast, the GI50 was over 100 µM and the TGI is over 100 µM.
Consider `CC1(C)O[C@@H](CCl)C[C@@H](C#N)O1`, for which the TGI in the assay with KM20L2 colon, with HOP-18 NSCLC and in the assay on M19-MEL melanoma was over 100 µM in each case.
As to `C=C(/C=C/C=C(\CO)CCC=C(C)C)[C@H]1CCC2([C@H](CCCO)/C(=C(/C)C=O)CC[C@]2(C)O)[C@H]1O` (some centres not stated), the TGI in the assay with XF 498 CNS, in the assay on LXFL 529 NSCLC, in the assay on KM20L2 colon, with HOP-18 NSCLC and in the assay with M19-MEL melanoma was over 100 µM in each case.
`O=C(Cc1csc2nc(-c3ccc(Br)cc3)cn12)N/N=C/c1ccccc1O`: in the assay on BT-549 breast, the GI50 is 10.1 µM and the TGI was 22.6 µM.
Regarding `CN(C)CN(C)c1nc(N(C)C)nc(N(C)C)n1`, the TGI in the assay on XF 498 CNS, in the assay on LXFL 529 NSCLC, in the assay with KM20L2 colon, with HOP-18 NSCLC and in the assay on M19-MEL melanoma was over 100 µM in each case.
As to `C#CCN(CCCOc1ccc(Cl)cc1Cl)CCCSC(=O)CCCCCN1/C(=C\C=C2/CCCC(/C=C/C3=[N+](CCCCCC(=O)[O-])c4ccccc4C3(C)C)=C2Cl)C(C)(C)c2ccccc21`, in the assay on BT-549 breast, the GI50 was 1.05 µM and the TGI was 2.34 µM.
As to `O=C(CC/C(CC(=O)c1ccc(Cl)cc1)=N\O)Nc1cccc(Cl)c1`, the TGI in the assay with XF 498 CNS, in the assay with LXFL 529 NSCLC, with KM20L2 colon and with M19-MEL melanoma was over 100 µM in each case.
Take `OCCN1CCCN(CCCN2c3ccccc3Sc3ccc(C(F)(F)F)cc32)CC1`: in the assay on BT-549 breast, the GI50 was 5.93 µM and the TGI stood at 20.4 µM.
Turning to `COC(=O)C1C(=O)NC2(C)CC1c1ccccc1O2` (configuration not stated), the TGI in the assay on XF 498 CNS, with LXFL 529 NSCLC and in the assay with M19-MEL melanoma was over 100 µM each time.
On to `CN(Cc1cnc2nc(N)nc(N)c2n1)c1c(Cl)cc(C(=O)NC(CCC(=O)O)C(=O)O)cc1Br` (configuration not stated), for which, in the assay with BT-549 breast, the GI50 is under 0.0122 µM and the TGI was over 100 µM.
On to `NC(=O)C1C(=O)Oc2cccnc21` (configuration not stated), for which the TGI with XF 498 CNS, with KM20L2 colon, with HOP-18 NSCLC and with M19-MEL melanoma was over 100 µM each time.
For `N#CC(C#N)=C/C=C/c1ccccc1[N+](=O)[O-]`, the TGI with MDA-N came out at 6.29 µM.
Take `Cc1cn([C@H]2CN(O)C[C@@H](CO)O2)c(=O)[nH]c1=O`: the TGI in the assay on BT-549 breast and in the assay with MDA-N was over 100 µM in each case.
Consider `CC[C@]1(O)C[C@@H]2CN(CCc3c([nH]c4ccccc34)[C@@](C(=O)OC)(c3cc4c(cc3OC)N(C)[C@H]3[C@@](O)(C(=O)OC)[C@H](OC(=O)CCCBr)[C@]5(CC)C=CCN6CC[C@]43[C@@H]65)C2)C1`, for which, in the assay with BT-549 breast, the GI50 is 0.0637 µM and the TGI is 10.1 µM.
Regarding `Cc1nc2sc(C(=O)Nc3cccc(Cl)c3)c(N)c2cc1C(O)c1ccccc1` (configuration not stated), in the assay on BT-549 breast, the GI50 is 6.13 µM and the TGI was determined as 35.6 µM.
With `CN1CCC(C(=O)Nc2n[nH]c3nnc(-c4ccccc4)cc23)CC1`, in the assay with BT-549 breast, the GI50 is over 25 µM and the TGI was over 25 µM.
Regarding `COc1cc2c(cc1OC)C(Sc1ccc(Cl)cc1)c1c(nc(N)c(C#N)c1N)O2` (configuration not stated), in the assay on BT-549 breast, the GI50 is 1.49 µM and the TGI worked out at 2.83 µM.
For `CCOc1ccccc1NC(=O)C1=C(C)NC(C)=C(C(=O)Nc2ccccc2OCC)C1c1ccc2c(c1)OCO2`, the TGI was 49.6 µM in the assay on XF 498 CNS, over 100 µM in the assay on LXFL 529 NSCLC, over 100 µM in the assay with KM20L2 colon and over 100 µM in the assay on M19-MEL melanoma.
In the case of `CC(=O)O[C@H]1C(=O)[C@@]2(C)C([C@H](OC(=O)c3ccccc3)[C@]3(O)C[C@H](OC(=O)[C@H](O)[C@@H](NC(=O)c4ccc(Cl)cc4)c4ccccc4)C(C)=C1C3(C)C)C1(OC(C)=O)CO[C@@H]1C[C@@H]2O` (some centres not stated), the TGI is 3.73 µM with XF 498 CNS; 0.212 µM with BT-549 breast; 0.0195 µM in the assay on MDA-N; 57.2 µM with LXFL 529 NSCLC; over 100 µM with KM20L2 colon; 14.1 µM in the assay on M19-MEL melanoma.
As for `O=C([CH-]C(=O)c1ccccc1)c1ccccc1.[CH2-]C.[CH2-]C.[Tl+3]`, the GI50 in the assay with BT-549 breast is 26.9 µM; with KM20L2 colon, 27.4 µM; with HOP-18 NSCLC, 28.5 µM. Also, the TGI in the assay with BT-549 breast, with KM20L2 colon and in the assay on HOP-18 NSCLC was over 100 µM each time.
Consider `NCC[PH+](c1ccccc1)c1ccccc1.NCC[PH+](c1ccccc1)c1ccccc1.[Cl-].[Pt+4]`, for which the GI50 in the assay on BT-549 breast was over 100 µM; in the assay on MDA-N, over 100000 nM. In addition, the TGI in the assay on BT-549 breast and in the assay with MDA-N was over 100 µM each time.
